Test results: US6756362B2, “Methods and compositions based on inhibition of cell invasion and fibrosis by anionic polymers” (priority 1991, dated 2004)

Test system: Murine 3T3 fibroblast
Assay: Stripe assay, 3T3
Format: cell-based, mouse
Parameters: key: Bands that were completely inhibitory to cell adhesion, migration and/or invasion were evaluated as (−); those allowing limited cell adhesion, migration and/or invasion (+/−); those permissive to cell adhesion, migration and/or invasion as (+)
Settings: for DS-PG Effect on Adhesion, Migration and Invasion / Effect of KS/CS-PG on Cell Migration: 3T3; for DS-PG Effect on Adhesion, Migration and Invasion: 2 days following plating
Procedure: Cell lines. Murine 3T3 fibroblast (NIH), rat C6 glioma (Paganetti et al., 1988, J. Cell Biol. 107:2281) and MCG-28 young immortalized mouse astrocyte (a murine neonatal astrocyte line immortalized with SV-40) were grown in medium composed of Dulbecco's modified Eagle medium (DMEM), 10% fetal calf serum (Gibco Laboratories), and penicillin G/streptomycin (100 units/ml, 100 μg/ml respectively, Gibco Laboratories). For the stripe assay, confluent plates were disaggregated with 0.05% trypsin, 0.53 mM EDTA (Gibco Laboratories) and seeded at 200,000 cells/ml (3 ml/plate). For the cell adhesion assays, confluent cultures were disaggregated with 0.03% EDTA and plated in a 96-well microtiter plate at 20,000-100,000 cells per well. PC12 cells, a pheochromocytoma cell line (Green L. A. & Tischler A. S., 1976, Proc. Natl. Acad. Sci. U.S.A. 73:2424), were grown in medium containing Roswell Park Memorial Institute (RPMI) medium 1640 (Gibco Laboratories), 10% horse serum, 5% fetal calf serum (FCS), and penicillin G/streptomycin (100 units/ml, 100 μg/ml respectively, Gibco Laboratories). The cells were disaggregated with 0.03% EDTA and plated in a 96-well microtiter plate at 3,000 cells per well.
The stripe assay was performed essentially as described by Snow et al. (1990, Exp. Neural. 309:111-130). Tissue culture Petri dishes (Falcon, 60 mm) were precoated with 0.5 ml of a mixture of 5 cm^2 section nitrocellulose (Schleicher & Schuell, Type BA 85) dissolved in 6 ml methanol, and air dried in a laminar flow hood. Cellulose filter paper (Whatman #1) was cut into 12×0.35 mm strips with a McIlwain tissue chopper (The Mickle Laboratory Engineering Co., LTD). A strip of filter paper was soaked in 20 μl of a solution of DS-PG or KS/CS-PG and LN at given concentration, blotted onto the nitrocellulose-coated dish for 30 sec. and removed. The test solution was allowed to air dry. This process was repeated several times creating clearly defined, equally spaced parallel bands of uniform width on the plates. A thin layer of 0.1 or 1 mg/ml LN was then spread evenly across the bands with a bent glass Pasteur pipet, and covered with culture medium (FIG. 1).
Plates were seeded with cell suspensions of 2.0×10^5 cells/ml or 4-10 DRG explants. The cultures were assessed for degree of adhesion, migration and/or invasion of the DS-PG or KS/CS-PG bands over a period of up to 7 days using a Leitz Fluovert microscope.
Bands that were completely inhibitory to cell adhesion, migration and/or invasion were evaluated as (−), those allowing limited cell adhesion, migration and/or invasion (+/−), and those permissive to cell adhesion, migration and/or invasion as (+). cell adhesion was defined as the initial interaction between the cell surface and the substratum which results in cell attachment and spreading. Cell migration was operationally defined as cell movement within the same substratum, and cell invasion was operationally defined as cell movement from one type of substratum to another type of substratum.

**Q.** How did the “Time Dependent Effect of DS-PG on 3T3 Cell Migration” value (“Time Dependent Effect of DS-PG” for short) (0.1 mg/ml (1.25 μM), 1d) turn out when Dermatan sulfate proteoglycan [DS-PG] was run?
**A.** +

**Q.** What about the “Time Dependent Effect of DS-PG” value (0.1 mg/ml (1.25 μM), 2d) of the same substance?
**A.** +

**Q.** And the “Time Dependent Effect of DS-PG” value (0.1 mg/ml (1.25 μM), 3d)?
**A.** +

**Q.** What about the “Time Dependent Effect of DS-PG” value (0.1 mg/ml (1.25 μM), 4d) of the same substance?
**A.** +

**Q.** What about the “Time Dependent Effect of DS-PG” value (0.1 mg/ml (1.25 μM), 7d) of the same substance?
**A.** +

**Q.** What about the “DS-PG Effect on Adhesion, Migration and Invasion” value (“DS-PG Effect on Adhesion” below) (0.1 mg/ml DS-PG + 20 μg/ml LN stripes) of the same substance?
**A.** +

**Q.** And the “Time Dependent Effect of DS-PG” value (0.2 mg/ml (2.5 μM), 1d)?
**A.** +/−

**Q.** What about the “Time Dependent Effect of DS-PG” value (0.2 mg/ml (2.5 μM), 2d) of the same substance?
**A.** +/−

**Q.** And the “Time Dependent Effect of DS-PG” value (0.2 mg/ml (2.5 μM), 3d)?
**A.** +/−

**Q.** And the “Time Dependent Effect of DS-PG” value (0.2 mg/ml (2.5 μM), 4d)?
**A.** +/−

**Q.** What about the “Time Dependent Effect of DS-PG” value (0.2 mg/ml (2.5 μM), 7d) of the same substance?
**A.** +

**Q.** And the “DS-PG Effect on Adhesion” value (0.2 mg/ml DS-PG + 20 μg/ml LN stripes)?
**A.** +/−

**Q.** And the “Time Dependent Effect of DS-PG” value (0.4 mg/ml (5 μM), 1d)?
**A.** −

**Q.** And the “Time Dependent Effect of DS-PG” value (0.4 mg/ml (5 μM), 2d)?
**A.** −

**Q.** What about the “Time Dependent Effect of DS-PG” value (0.4 mg/ml (5 μM), 3d) of the same substance?
**A.** −

**Q.** What about the “Time Dependent Effect of DS-PG” value (0.4 mg/ml (5 μM), 4d) of the same substance?
**A.** −

**Q.** And the “Time Dependent Effect of DS-PG” value (0.4 mg/ml (5 μM), 7d)?
**A.** +/−

**Q.** And the “DS-PG Effect on Adhesion” value (0.4 mg/ml DS-PG + 20 μg/ml LN stripes)?
**A.** −

**Q.** And the “Time Dependent Effect of DS-PG” value (0.8 mg/ml (10 μM), 1d)?
**A.** −

**Q.** What about the “Time Dependent Effect of DS-PG” value (0.8 mg/ml (10 μM), 2d) of the same substance?
**A.** −

**Q.** What about the “Time Dependent Effect of DS-PG” value (0.8 mg/ml (10 μM), 3d) of the same substance?
**A.** −

**Q.** And the “Time Dependent Effect of DS-PG” value (0.8 mg/ml (10 μM), 4d)?
**A.** −

**Q.** And the “Time Dependent Effect of DS-PG” value (0.8 mg/ml (10 μM), 7d)?
**A.** +/−

**Q.** What about the “DS-PG Effect on Adhesion” value (0.8 mg/ml DS-PG + 20 μg/ml LN stripes) of the same substance?
**A.** −

**Q.** What does the source list for “keratan sulfate/chrondroitin sulfate-proteoglycans [KS/CS-PG]”?
**A.** Effect of KS/CS-PG on Cell Migration (0.25 mg/ml KS/CS-PG + LN stripes): +; Effect of KS/CS-PG on Cell Migration (0.5 mg/ml KS/CS-PG + LN stripes): +/−; Effect of KS/CS-PG on Cell Migration (1.0 mg/ml KS/CS-PG + LN stripes): +/−; Effect of KS/CS-PG on Cell Migration (2.7 mg/ml KS/CS-PG + LN stripes): −
